The values below come from patent publication US5545738A, “Alfuzosin hydrochloride dihydrate” (Synthelabo, priority 1993, dated 1996).

Where a name gives a salt, the structure may show the parent alone.

Data set [1] can be described thus: Test on Stability to Heating, Humidifying and Light. It is filed as physicochemical. As to conditions: for stability, overall: conditions of table 1; for moisture content of crystal form: initial, before test. As for the experimental part: The stability test was carried out following the procedures described below.
A 0.3 g-portion of each of the anhydrous form and respective hydrates of alfuzosin hydrochloride in crystal forms was placed in a glass bottle (sealed) and in a desiccator filled with a NaCl saturated solution, and preserved at 70° C. with a heater (Toyama Industry), after which the physicochemical stability of each compound was evaluated by X-ray powder diffraction and high performance liquid chromatography (HPLC).
Separately, 0.3 g of each of the anhydrous form and respective hydrates of alfuzosin hydrochloride in crystal forms was placed in a plastic dish which was then covered with a polyvinylidene chloride film, followed by irradiation with a chemical lamp (dominant wavelength: 365 nm) for 24 hours, for the evaluation of the light stability in the same manner as in the above.
HPLC apparatus (manufactured by Shimazu)
Detection with UV (at 254 nm); column (Nucleosil 5C18, 150 mm×4 mm, M, Nagel; flow rate 1.0 ml/m; room temperature; eluent, NaClO4 (in 1000 ml of water, 7 g, pH 3.5)- acetonitrile-THF (155:55:45): internal standard, p-chloroacetanilide (0.5 mg/ml).

Data set [2] in a line: Drying Test (moisture content and crystal state under drying conditions). As to conditions: for loss of water: 1 day. It is filed as physicochemical. The protocol:
The moisture content was measured with Karl Fischer Aquameter (Kyoto Electron Industry, MK-AII) for about 100 mg of a sample dissolved in methanol for moisture measurement. In turn, the dehydration behavior of the crystal water was measured by thermogravimetry and differential thermal analysis using TG/DTA200 thermogravimetric apparatus and SSC5030 Disc Station (Seiko). Concretely, approximately 5 mg of a sample was weighed into an open aluminum pan and analyzed at a rate of temperature increase of 10° C./m or 1° C./m. This analysis was carried out in a nitrogen atmosphere (flow rate: 100 ml/m).
Different from the hygroscopicity test mentioned above, the various hydrates of alfuzosin hydrochloride were kept under drying conditions for the monitoring of the change in moisture content.
In this connection, simultaneously in the present test, also the crystal state of dried samples after a three-days' drying was investigated for the dihydrate of the present invention by X-ray powder diffraction under drying conditions, for comparison with patterns of X-ray powder diffraction under normal conditions.

Data set [3] is described as follows: Accelerated Test (100 °C and 120 °C, X-ray powder diffraction). In kind it is physicochemical. As to conditions: 45 min.
Assay in data set [4]: as above
In kind it is physicochemical. As to conditions: for crystal form change: 2 hours. As for the experimental part:
A 0.3 g-portion of each of the hydrates of alfuzosin hydrochloride was preserved in heaters (Sanyo) set to 100° C. and 120° C., for the confirmation of the stability of the respective hydrates. The physical stability of the respective samples was confirmed by X-ray powder diffraction.
In this test, the crystal state of the respective hydrates was monitored by X-ray powder diffraction every 30 minutes for 2 hours.

Data set [5] is described as follows: overall stability of crystal forms (tests 1-4). In kind it is physicochemical. The settings on record: normal preservation (25° C., RH 40-80%) and heating (50°-60° C.); Hydrochloride Dihydrate.
Data set [6] can be described thus: Hygroscopicity Test (25 °C, various relative humidities, 10 days). In kind it is physicochemical. As for the experimental part: A 0.2 g-portion of a sample of each of the anhydrous form and respective hydrates of alfuzosin hydrochloride was placed in a desiccator containing a saturated solution of the salts listed hereunder (at 25° C.), and the relationship between the relative humidity at which the hydrated states of the respective compounds become. stable physically and the hygroscopicity of polymorphic hydrated forms of those compounds was investigated. The respective samples were brought to equilibrium by storage for 10 days under the respective conditions. For the setting up of the relative humidity (RH: %) was used a saturated solution of salts listed below:
RH 0%, dry P2 O5; RH 11%, LiCl; RH 22%, CH3 COOK; RH 33%, MgCl2; RH 43%, K2 CO3.2H2 O; RH 53%, Mg(NO3)2; RH 64%, CoCl2.6H2 O; RH 75%, NaCl; RH 84%, KCl; RH 93%, KNO3; RH 100%, water.

Data set [7] relates to α1 -adrenergic receptor. The settings on record: cited from earlier work.
The mark [8] stands for this setting: Chemical lamp (365 nm), 24 hours.
[9] abbreviates: after 70° C., 9 days at RH 75%, hydrochloride.
Where [10] appears, read: after 70° C., 9 days, hydrochloride.
Where [11] appears, read: after chemical lamp (365 nm), 24 hours, hydrochloride.

In the case of `COc1cc2nc(N(C)CCCNC(=O)C3CCCO3)nc(N)c2cc1OC` (centres unmarked) [Tetrahydrate (TETRA), alfuzosin hydrochloride tetrahydrate], the DI content turned out to be 26% in data set [1] (70° C., 9 days) and 98% in data set [1] (70° C., 9 days at RH 75%). The TETRA content in data set [1] (70° C., 9 days) is reported as 74%; in data set [1] (70° C., 9 days at RH 75%), 2%. In addition, the moisture content in data set [1] (after 70° C., 9 days) came to 13.19%; in data set [1] (after 70° C., 9 days at RH 75%), 8.25%; in data set [1] (after chemical lamp (365 nm), 24 hours) it was 15.18%. Besides, the “stability, overall” value in data set [1] is given as “changed partially into the dihydrate, so they are considered unstable”. The “moisture content of crystal form” value in data set [1] turned out to be 14.93%. In data set [2] (drying conditions), the loss of water entry was “lost most of the water in 1 day”. In addition, the crystal form change entry in data set [3] is listed as “changed into the dihydrate”; in data set [4] (100° C.) it was “changed into the dihydrate by degrees”. In data set [4] (100° C., 30 min.), the crystal form result is given as “TETRA + DI”.
As to `COc1cc2nc(N(C)CCCNC(=O)C3CCCO3)nc(N)c2cc1OC` (centres unmarked) [Dihydrate (DI), Alfuzosin Hydrochloride Dihydrate], in data set [5], the “relative stability among crystal forms” value is recorded as “the stablest crystal form”. The stability result in data set [1] (70° C., 9 days) is “Stable”; in data set [1] (70° C., 9 days at RH 75%), “Stable”; in data set [1] (setting [8]) it was “Stable”. The moisture content in data set [1] (after 70° C., 9 days at RH 75%, Hydrochloride Dihydrate) is given as 8.48%; in data set [1] (after 70° C., 9 days, Hydrochloride Dihydrate) it was 8.41%; in data set [1] (after chemical lamp (365 nm), 24 hours, Hydrochloride Dihydrate), 8.40%. Moreover, the “stability, overall” value in data set [1] (Hydrochloride Dihydrate) is listed as “extremely stable”. The “moisture content of crystal form” value in data set [1] (Hydrochloride Dihydrate) worked out at 8.14%. Also, in data set [2] (drying conditions), the dehydration process entry was “goes very slowly”. In data set [2] (drying conditions, 3 days), the “change in moisture content” value is given as “no significant change in moisture content”. The “crystal form after drying” value in data set [2] (three-days' drying, X-ray powder diffraction) is reported as “retains its original crystal form, with some drop in degree of crystallization”. Also, the time stable in data set [4] (100° C.) is at least 2 h; in data set [4] (120° C.), at least 0.75 h.
As to `COc1cc2nc(N(C)CCCNC(=O)C3CCCO3)nc(N)c2cc1OC` (centres unmarked) [Trihydrate (TRI), trihydrate of alfuzosin hydrochloride], the TRI content in data set [1] (70° C., 9 days) came out at 68%; in data set [1] (70° C., 9 days at RH 75%), 84%. The DI content was found to be 16% in data set [1] (70° C., 9 days at RH 75%, hydrochloride) and 37% in data set [1] (70° C., 9 days, hydrochloride). Further, the stability entry in data set [1] (setting [8]) was “Stable”. Further, the moisture content is listed as 12.03% in data set [1] (setting [9]), 11.05% in data set [1] (setting [10]) and 12.87% in data set [1] (setting [11]). In addition, the “stability, overall” value in data set [1] (hydrochloride) is given as “changed partially into the dihydrate, so they are considered unstable”. The “moisture content of crystal form” value in data set [1] (hydrochloride) worked out at 12.75%. Further, the loss of water result in data set [2] (drying conditions) is listed as “lost most of the water in 1 day”. Also, the crystal form result in data set [3] (hydrochloride) is “AN + DI + TRI”; in data set [4] (100° C., 30 min., hydrochloride), “TRI”; in data set [4] (100° C., 60 min., hydrochloride), “TRI + DI”; in data set [4] (100° C., 90 min., hydrochloride), “TRI + DI”; in data set [4] (100° C., 120 min., hydrochloride) it was “TRI + DI”. In addition, the crystal form change entry was “changed into a mixture of the anhydrous form, dihydrate and trihydrate” in data set [3] (hydrochloride); “changed into the dihydrate by degrees” in data set [4] (100° C.).
For `COc1cc2nc(N(C)CCCNC(=O)C3CCCO3)nc(N)c2cc1OC` (centres unmarked) [Anhydrous, anhydrous alfuzosin hydrochloride], the stability entry in data set [1] (70° C., 9 days) is on record as “Stable”; in data set [1] (70° C., 9 days at RH 75%) it was “Stable”; in data set [1] (setting [8]) it was “Stable”. Besides, the moisture content came out at 0.7% in data set [1] (setting [9]), 1.33% in data set [1] (setting [10]) and 0.66% in data set [1] (setting [11]). Also, the “stability, overall” value in data set [1] (listed as anhydrous form, hydrochloride) is reported as “extremely stable”. The “moisture content of crystal form” value in data set [1] (hydrochloride) is recorded as 0.1%. Also, the “relative humidity at which stable” value in data set [6] (25° C., 10 days) is given as at most 75%. Besides, the equilibrium moisture content in data set [6] (RH over 75%, 25° C.) is listed as 12%. The “moisture content change at RH over 75%” value in data set [6] (RH over 75%, 25° C.) is on record as “increased significantly”. The “moisture content, equivalent moles of water” value in data set [6] (equilibrium, RH over 75%, 25° C.) is listed as 3 moles of water. Moreover, the “crystal form change on preservation” value in data set [6] (relative humidity exceeding 75%) is on record as “the crystal structure of the anhydrous formchanges, thereby providing a trihydrate”.
With `COc1cc2nc(N(C)CCCNC(=O)C3CCCO3)nc(N)c2cc1OC` (centres unmarked) [alfuzosin hydrochloride], the “α1 -adrenergic receptor antagonism” value in data set [7] is “antagonist of α1 -adrenergic receptor”.
